Values quoted from earlier work as cited in patent US20090325888A1, “Peptides having a health benefit and compositions comprising them” (priority 2005, published 2009).

What was measured:
ACE = ACE (Homo sapiens, UniProt P12821)
hypertensive humans = conditions: in sour milk, Hata 1996

Chain of ACE (P12821 30-1306, species assumed): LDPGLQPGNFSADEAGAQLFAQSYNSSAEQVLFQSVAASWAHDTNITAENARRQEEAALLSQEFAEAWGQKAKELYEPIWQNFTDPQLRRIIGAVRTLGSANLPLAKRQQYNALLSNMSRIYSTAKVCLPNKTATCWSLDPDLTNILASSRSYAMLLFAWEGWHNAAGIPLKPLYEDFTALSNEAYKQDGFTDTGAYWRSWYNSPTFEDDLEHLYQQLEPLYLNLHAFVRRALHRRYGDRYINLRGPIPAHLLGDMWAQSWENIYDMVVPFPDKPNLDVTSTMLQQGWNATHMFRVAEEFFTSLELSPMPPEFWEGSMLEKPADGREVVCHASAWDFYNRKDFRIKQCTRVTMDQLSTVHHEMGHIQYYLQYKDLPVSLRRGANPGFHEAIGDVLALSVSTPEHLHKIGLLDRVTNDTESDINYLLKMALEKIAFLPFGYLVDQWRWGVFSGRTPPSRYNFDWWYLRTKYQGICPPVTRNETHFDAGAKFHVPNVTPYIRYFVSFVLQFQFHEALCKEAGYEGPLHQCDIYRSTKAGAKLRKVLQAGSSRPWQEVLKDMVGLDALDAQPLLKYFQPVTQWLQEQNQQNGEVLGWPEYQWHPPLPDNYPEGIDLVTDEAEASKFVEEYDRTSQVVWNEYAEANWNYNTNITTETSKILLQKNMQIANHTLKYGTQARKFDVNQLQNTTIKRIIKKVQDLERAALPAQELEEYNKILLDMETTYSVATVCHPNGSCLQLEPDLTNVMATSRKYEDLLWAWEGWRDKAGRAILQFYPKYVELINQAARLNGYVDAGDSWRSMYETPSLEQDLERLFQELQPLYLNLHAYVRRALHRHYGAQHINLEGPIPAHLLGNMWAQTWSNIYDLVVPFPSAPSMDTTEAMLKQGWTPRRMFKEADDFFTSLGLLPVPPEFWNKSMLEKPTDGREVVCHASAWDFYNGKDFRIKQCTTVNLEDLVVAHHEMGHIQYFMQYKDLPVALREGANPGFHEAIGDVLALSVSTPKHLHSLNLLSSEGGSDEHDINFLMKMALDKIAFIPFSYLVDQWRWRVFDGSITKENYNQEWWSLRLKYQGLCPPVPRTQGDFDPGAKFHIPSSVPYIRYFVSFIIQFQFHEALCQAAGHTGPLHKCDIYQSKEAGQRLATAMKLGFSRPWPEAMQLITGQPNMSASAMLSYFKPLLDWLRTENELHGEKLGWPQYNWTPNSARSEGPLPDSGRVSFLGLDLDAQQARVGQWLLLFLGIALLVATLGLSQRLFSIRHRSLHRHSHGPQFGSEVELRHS

| Compound | in vitro ACE inhibition (ACE; peptides in fermented milk products) | blood pressure lowering effect (hypertensive humans) | IC50 (ACE; Nakamura 1995, Aryoshi 1993, read-out: IC50 values reported earlier as ACEI peptides) |
| --- | --- | --- | --- |
| CC[C@H](C)[C@H](N)C(=O)N1CCC[C@H]1C(=O)N1CCC[C@H]1C(=O)O [IPP] | in vitro ACE inhibition | blood pressure lowering effect |  |
| LPP: known ACE inhibiting tripeptide, β-casein f151-153 (UniProt P02666 166-168, looked up, fragment) |  |  | 9.6 µM |
